Reference: patent US20140190496A1, “METHODS AND DEVICES FOR COMPOUND DELIVERY” (priority 2012, published 2014)
Where “and” joins values, the source holds several entries; their conditions need not be identical. Equal entries are not always repeated.

How the values were obtained:
[1] = Particle size diameter, ENT-100-D, heater element leads lengthened, with or without MARK V adder; assay type: physicochemical; conditions: foam replaced w/SS screen, flow 2.04-2.06 LPM, 2 amps
Excerpt: This example describes the particle size diameters (PSD) of aerosols generated from a heater element as described in FIG. 36. The length of the leads in this example is 0.70 inches (about 17.78 mm). The heater element is inserted into the device depicted in FIG. 31D. […] In this example, the liquid formulation comprises propylene glycol and it wicks onto the ends of the wire of the heater element and onto the brass contacts.

[2] = Aerosol particle size from test apparatus with wire coil heater element; assay type: physicochemical; conditions: stainless steel coil heater, 3.5 coils; air flow 2 Liters/min; dose 1 mg; 2.5 Amps; 1 second
[3] = Particle size diameter of aerosols from ENT-100-A/B/C devices with wire coil heater elements and bypass inlets; assay type: physicochemical; conditions: 1 sec, listed as propylene glycol formulation
Excerpt: This example describes the particle size diameters (PSD) of aerosols generated from a device comprising a heater element comprising a wire coil. […] The “A Coil” comprises a stretch of coil followed by a straight lead on either end of the coil which connects to the brass contacts. The “B Coil” comprises a stretch of coil, wherein the coil itself connects to the brass contacts.

[4] = Aerosol particle size from test airway apparatus with stainless steel foil heater element; assay type: physicochemical; conditions: dose 1 mg
Excerpt: A hole to deposite drug (2706a) is provided and foil is shown (2708a). Brass contacts (2710a) are provided.

[5] = Effect of gravity (device rotation) on particle size diameter, ENT-100-D; assay type: physicochemical; conditions: ENT-100-D loaded with 2 mg; device rotated 90 degrees in all dimensions from baseline
Excerpt: The device is rotated 90 degrees in all dimensions from a stable baseline position. […] As a result, the device produces particles of a consistent size regardless of the orientation in space of the device.

[6] = cited from earlier work

SMILES	PSD (microns) ([1]; flow 2.04 LPM)	PSD (microns) ([1]; flow 2.05 LPM)	PSD (microns) ([1]; flow 2.06 LPM)	Particle Size Diameter (microns) [2]	PSD (microns) ([3]; B Coil, dose 2 mg, 2.0 amps, heater element moved aft, B configuration (total flow 12 LPM), flow 1.5-1.60 LPM, flow 1.5 LPM)	PSD (microns) ([3]; B Coil, dose 2 mg, 2.0 amps, heater element moved aft, B configuration (total flow 12 LPM), flow 1.5-1.60 LPM, flow 1.60 LPM)	PSD (microns) ([3]; ENT-100-B with B Coil, dose 2 mg, 2.0 amps, bypass untaped, total flow ~8.5 LPM, flow 1.5-1.52 LPM, flow 1.5 LPM)	PSD (microns) ([3]; ENT-100-B with B Coil, dose 2 mg, 2.0 amps, with stainless steel (SS) screen to even flow, flow 1.55-1.56 LPM, flow 1.56 LPM)	PSD (microns) ([3]; ENT-100-C, new heater element .032 ID 0.100 stretch, 2 mg dose, flow 2.04 LPM, 2.6 amps)	Particle Size Diameter (microns) ([4]; heater element thickness 0.0005 inches, air flow 1 Liters/min, 6 Amps, heating 1 second)	Particle Size Diameter (microns) ([4]; heater element thickness 0.0005 inches, air flow 1 Liters/min, 8 Amps, heating 0.5 seconds)	Particle Size Diameter (microns) ([4]; heater element thickness 0.001 inches, air flow 1 Liters/min, 8 Amps, heating 0.7 seconds)	Particle Size Diameter (microns) ([4]; heater element thickness 0.001 inches, air flow 3 Liters/min, 7 Amps, heating 1 second)	Particle Size Diameter (microns) ([4]; heater element thickness 0.001 inches, air flow 3 Liters/min, 10 Amps, heating 1 second)	Particle Size Diameter (microns) ([4]; heater element thickness 0.001 inches, air flow 6 Liters/min, 10 Amps, heating 1 second)	Particle Size Diameter (microns) ([4]; heater element thickness 0.001 inches, air flow 12 Liters/min, 10 Amps, heating 1 second)	particle size diameter at each rotation [5]	time to achieve peak increments of plasma nicotine concentration ([6]; smoking a cigarette)	peak increments of plasma nicotine concentration ([6]; smoking a single cigarette)
CC(O)CO (stereo not shown) [PG, propylene glycol]	2.7-3.0 microns and 2.8-3.0 microns	2.6-2.8 microns	3.0-3.1 microns	1.5-2.2 microns	1.7-1.8 microns	1.7-1.75 microns	1.8-1.9 microns	2.6-2.9 microns	2.0-2.5 microns and 2.0-2.2 microns and 2.1-2.3 microns and 2.1-2.2 microns	2.1-3 microns	2 microns	1 microns	1.8 microns and 2 microns and 1.5-1.8 microns and 1.4-1.8 microns	1 microns and 0.9 microns	0.6 microns and 0.6-0.8 microns	0.5 microns	found not to change	–	–
CN1CCCC1c1cccnc1 (stereo not shown) [nicotine]	–	–	–	–	–	–	–	–	–	–	–	–	–	–	–	–	–	≤ 10 min	5 to 30 ng/mL
